Results as given in ChEMBL document CHEMBL2440114, “Methanolysis of triterpenoid saponin from Ardisia gigantifolia stapf. and structure-activity relationship study against cancer cells” (Bioorg Med Chem Lett, 2013).

Assays:
EJ = assay: Cytotoxicity against human EJ cells; format: functional, cell-based
HepG2 = assay: Cytotoxicity against human HepG2 cells; format: functional, cell-based
[1] = Cytotoxicity against human […] cells; format: functional, cell-based
HeLa = assay: Cytotoxicity against human HeLa cells; format: functional, cell-based
HCT-8 = assay: Antiproliferative activity against human HCT8 cells by MTT assay; format: functional, cell-based
Bel-7402 [2] = assay: Antiproliferative activity against human Bel7402 cells by MTT assay; format: functional, cell-based
A549 = assay: Antiproliferative activity against human A549 cells by MTT assay; format: functional, cell-based
Bel-7402 [3] = assay: Cell cycle arrest in human Bel7402 cells assessed as accumulation in G2/M phase (reference value: 43.75+/- 1.1 %); format: functional
Bel-7402 [4] = assay: Cell cycle arrest in human Bel7402 cells assessed as accumulation in G1 phase (reference value: 37.6+/- 1.4 %); format: functional
Bel-7402 [5] = assay: Antiproliferative activity against human Bel7402 cells after 12 to 72 hrs by MTT assay; format: functional, cell-based
Bel-7402 [6] = assay: Antiproliferative activity against human Bel7402 cells at 0.5 to 20 uM by MTT assay; format: functional, cell-based; settings: TDE = time-dependent effect
Bel-7402 [7] = assay: Cell cycle arrest in human Bel7402 cells assessed as accumulation in S phase (reference value: 18.65+/- 0.5 %); format: functional

Work on `C[C@@H]1O[C@@H](O[C@H]2[C@H](O)[C@@H](CO)O[C@@H](O[C@H]3CO[C@@H](O[C@H]4CC[C@]5(C)[C@H]6CC[C@]78OC[C@@]9(CC[C@](C)(C=O)C[C@H]97)[C@H](O)C[C@@]8(C)[C@]6(C)CC[C@H]5C4(C)C)[C@H](O[C@@H]4O[C@H](CO)[C@@H](O)[C@H](O)[C@H]4O)[C@H]3O)[C@@H]2O[C@@H]2OC[C@@H](O)[C@H](O)[C@H]2O)[C@H](O)[C@H](O)[C@H]1O` yielded an IC50 (EJ) of 2000 nM, an IC50 (HepG2) of 1900 nM and an IC50 [1] of 2100 nM. The IC50 (HeLa) was 1800 nM, the IC50 (HCT-8) was > 100 µM and the IC50 (Bel-7402 [2]) was 1.58 µM. The IC50 (A549) was > 100 µM.

In the case of `CCCCO[C@@H]1OC[C@]23CC[C@@]1(C)C[C@H]2C1=CC[C@@H]2[C@@]4(C)CC[C@H](O)C(C)(C)[C@@H]4CC[C@@]2(C)[C@]1(C)C[C@H]3O`, the IC50 (HCT-8) is reported as > 100 µM, the IC50 (Bel-7402 [2]) is reported as 11.6 µM and the IC50 (A549) is reported as > 100 µM.

`C[C@@H]1O[C@@H](O[C@H]2[C@H](O)[C@@H](CO)O[C@@H](O[C@H]3CO[C@@H](O[C@H]4CC[C@]5(C)[C@H]6CC[C@]78OC[C@@]9(CC[C@](C)(C=O)C[C@H]97)[C@H](O)C[C@@]8(C)[C@]6(C)CC[C@H]5C4(C)C)[C@H](O[C@@H]4O[C@H](CO)[C@@H](O)[C@H](O)[C@H]4O)[C@H]3O)[C@@H]2O[C@@H]2OC[C@@H](O)[C@H](O[C@@H]3O[C@H](CO)[C@@H](O)[C@H](O)[C@H]3O)[C@H]2O)[C@H](O)[C@H](O)[C@H]1O` gave an IC50 (HCT-8) of 2 µM, an IC50 (Bel-7402 [2]) of 3.2 µM and an IC50 (A549) of 3.2 µM.

Compound `O=c1[nH]cc(F)c(=O)[nH]1` [FLUOROURACIL] has an IC50 (HCT-8) of 6.92 µM and an IC50 (Bel-7402 [2]) of 8.3 µM.

In the case of `CC(=O)OC[C@@]1(C)CC[C@]23CO[C@@]4(CC[C@@H]5[C@@]6(C)CC[C@H](O[C@@H]7OC[C@H](O[C@@H]8O[C@H](CO)[C@@H](O)[C@H](O[C@@H]9O[C@@H](C)[C@H](O)[C@@H](O)[C@H]9O)[C@H]8O[C@@H]8OC[C@@H](O)[C@H](O)[C@H]8O)[C@H](O)[C@H]7O[C@@H]7O[C@H](CO)[C@@H](O)[C@H](O)[C@H]7O)C(C)(C)[C@@H]6CC[C@@]5(C)[C@]4(C)C[C@H]2O)[C@@H]3C1`, the IC50 (HCT-8) is reported as > 100 µM, the IC50 (Bel-7402 [2]) is reported as > 100 µM and the IC50 (A549) is reported as 59.7 µM.

For `C[C@@H]1O[C@@H](O[C@H]2[C@H](O)[C@@H](CO)O[C@@H](O[C@H]3CO[C@@H](O[C@H]4CC[C@]5(C)[C@H]6CC[C@]78OC[C@@]9(CCC(C)(C)C[C@H]97)[C@H](O)C[C@@]8(C)[C@]6(C)CC[C@H]5C4(C)C)[C@H](O[C@@H]4O[C@H](CO)[C@@H](O)[C@H](O)[C@H]4O)[C@H]3O)[C@@H]2O[C@@H]2OC[C@@H](O)[C@H](O[C@@H]3O[C@H](CO)[C@@H](O)[C@H](O)[C@H]3O)[C@H]2O)[C@H](O)[C@H](O)[C@H]1O`, the Activity (Bel-7402 [3]) was 59.94%, the Activity (Bel-7402 [4]) was 40.86% and the Activity (Bel-7402 [5]) was “Dose-dependent effect”. The Activity (Bel-7402 [6]) was “tde”, the IC50 (HCT-8) was 10.1 µM and the IC50 (Bel-7402 [2]) was 7.83 µM. For the same compound, the IC50 (A549) was 8.15 µM.

With `CCCCO[C@H]1OC[C@]23CC[C@@]1(C)C[C@H]2C1=CC[C@@H]2[C@@]4(C)CC[C@H](O)C(C)(C)[C@@H]4CC[C@@]2(C)[C@]1(C)C[C@H]3O` the IC50 (HCT-8) was > 100 µM, the IC50 (Bel-7402 [2]) was 53.1 µM and the IC50 (A549) was 44.3 µM.

For `C[C@@H]1O[C@@H](O[C@H]2[C@H](O)[C@@H](CO)O[C@@H](O[C@H]3CO[C@@H](O[C@H]4CC[C@]5(C)[C@H]6CC[C@]78OC[C@@]9(CCC(C)(C)C[C@H]97)[C@H](O)C[C@@]8(C)[C@]6(C)CC[C@H]5C4(C)C)[C@H](O[C@@H]4O[C@H](CO)[C@@H](O)[C@H](O)[C@H]4O)[C@H]3O)[C@@H]2O[C@@H]2OC[C@@H](O)[C@H](O)[C@H]2O)[C@H](O)[C@H](O)[C@H]1O`, the Activity (Bel-7402 [3]) was 48.08%, the Activity (Bel-7402 [7]) was 18.61% and the Activity (Bel-7402 [4]) was 33.31%. The Activity (Bel-7402 [5]) was “Dose-dependent effect”, the Activity (Bel-7402 [6]) was “tde” and the IC50 (HCT-8) was > 100 µM. It also gave an IC50 (Bel-7402 [2]) of 0.86 µM and an IC50 (A549) of 51.8 µM.

Compound `C[C@@H]1O[C@@H](O[C@H]2[C@H](O)[C@@H](CO)O[C@@H](O[C@H]3CO[C@@H](O[C@H]4CC[C@]5(C)[C@H]6CC[C@]78OC[C@@]9(CC[C@](C)(CO)C[C@H]97)C(=O)C[C@@]8(C)[C@]6(C)CC[C@H]5C4(C)C)[C@H](O[C@@H]4O[C@H](CO)[C@@H](O)[C@H](O)[C@H]4O)[C@H]3O)[C@@H]2O[C@@H]2OC[C@@H](O)[C@H](O)[C@H]2O)[C@H](O)[C@H](O)[C@H]1O` has an IC50 (HCT-8) of 3.41 µM, an IC50 (Bel-7402 [2]) of 3.6 µM and an IC50 (A549) of 3.77 µM.

With `CCCCO[C@H]1OC[C@]23CC[C@@]1(C)C[C@H]2C1=CC[C@@H]2[C@@]4(C)CC[C@H](O[C@@H]5OC[C@H](O[C@@H]6O[C@H](CO)[C@@H](O)[C@H](O)[C@H]6O)[C@H](O)[C@H]5O[C@@H]5O[C@H](CO)[C@@H](O)[C@H](O)[C@H]5O)C(C)(C)[C@@H]4CC[C@@]2(C)[C@]1(C)C[C@H]3O` the IC50 (HCT-8) was > 100 µM, the IC50 (Bel-7402 [2]) was > 100 µM and the IC50 (A549) was > 100 µM.

For `C[C@@H]1O[C@@H](O[C@H]2[C@H](O)[C@@H](CO)O[C@@H](O[C@H]3CO[C@@H](O[C@H]4CC[C@]5(C)[C@H]6CC[C@]78OC[C@@]9(CC[C@](C)(C=O)C[C@H]97)C(=O)C[C@@]8(C)[C@]6(C)CC[C@H]5C4(C)C)[C@H](O)[C@H]3O)[C@@H]2O[C@@H]2OC[C@@H](O)[C@H](O)[C@H]2O)[C@H](O)[C@H](O)[C@H]1O`, the IC50 (HCT-8) was 7.73 µM, the IC50 (Bel-7402 [2]) was 6.9 µM and the IC50 (A549) was 10 µM.

In the case of `CC(=O)OC[C@H]1O[C@@H](O[C@H]2[C@H](O[C@H]3CC[C@]4(C)[C@H]5CC[C@]67OC[C@@]8(CC[C@](C)(C=O)C[C@H]86)[C@H](O)C[C@@]7(C)[C@]5(C)CC[C@H]4C3(C)C)OC[C@H](O[C@@H]3O[C@H](CO)[C@@H](O)[C@H](O[C@@H]4O[C@@H](C)[C@H](O)[C@@H](O)[C@H]4O)[C@H]3O[C@@H]3OC[C@@H](O)[C@H](O)[C@H]3O)[C@@H]2O)[C@H](O)[C@@H](O)[C@@H]1O`, the IC50 (HCT-8) is reported as 4.1 µM, the IC50 (Bel-7402 [2]) is reported as 7.76 µM and the IC50 (A549) is reported as 7.52 µM.

Compound `CC1(C)[C@@H](O[C@@H]2OC[C@H](O[C@@H]3O[C@H](CO)[C@@H](O)[C@H](O)[C@H]3O[C@@H]3OC[C@@H](O)[C@H](O)[C@H]3O)[C@H](O)[C@H]2O)CC[C@]2(C)[C@H]3CC[C@]45OC[C@@]6(CC[C@](C)(C=O)C[C@H]64)[C@H](O)C[C@@]5(C)[C@]3(C)CC[C@@H]12` [PRIMULANIN] has an IC50 (HCT-8) of 8.43 µM, an IC50 (Bel-7402 [2]) of 10.3 µM and an IC50 (A549) of 12 µM.

`CC1(C)CC[C@]23CO[C@@]4(CC[C@@H]5[C@@]6(C)CC[C@H](O[C@@H]7OC[C@H](O[C@@H]8O[C@H](CO)[C@@H](O)[C@H](O)[C@H]8O[C@@H]8OC[C@@H](O)[C@H](O)[C@H]8O)[C@H](O)[C@H]7O[C@@H]7O[C@H](CO)[C@@H](O)[C@H](O)[C@H]7O)C(C)(C)[C@@H]6CC[C@@]5(C)[C@]4(C)C[C@H]2O)[C@@H]3C1` [LYSIKOKIANOSIDE 1] gave an IC50 (HCT-8) of 10.1 µM, an IC50 (Bel-7402 [2]) of 6.77 µM and an IC50 (A549) of 4.37 µM.

In the case of `C[C@@H]1O[C@@H](O[C@H]2[C@H](O)[C@@H](CO)O[C@@H](O[C@H]3CO[C@@H](O[C@H]4CC[C@]5(C)[C@H]6CC[C@]78OC[C@@]9(CC[C@](C)(CO)C[C@H]97)[C@H](O)C[C@@]8(C)[C@]6(C)CC[C@H]5C4(C)C)[C@H](O[C@@H]4O[C@H](CO)[C@@H](O)[C@H](O)[C@H]4O)[C@H]3O)[C@@H]2O[C@@H]2OC[C@@H](O)[C@H](O)[C@H]2O)[C@H](O)[C@H](O)[C@H]1O`, the IC50 (HCT-8) is reported as 8.63 µM, the IC50 (Bel-7402 [2]) is reported as > 100 µM and the IC50 (A549) is reported as 31 µM.

With `CCCCO[C@@H]1OC[C@]23CC[C@@]1(C)C[C@H]2C1=CC[C@@H]2[C@@]4(C)CC[C@H](O[C@@H]5OC[C@H](O[C@@H]6O[C@H](CO)[C@@H](O)[C@H](O)[C@H]6O)[C@H](O)[C@H]5O[C@@H]5O[C@H](CO)[C@@H](O)[C@H](O)[C@H]5O)C(C)(C)[C@@H]4CC[C@@]2(C)[C@]1(C)C[C@H]3O` the IC50 (HCT-8) was > 100 µM, the IC50 (Bel-7402 [2]) was 7.34 µM and the IC50 (A549) was 10.6 µM.

`CC(=O)OC[C@H]1O[C@@H](O[C@H]2[C@H](O[C@H]3CC[C@]4(C)[C@H]5CC[C@]67OC[C@@]8(CCC(C)(C)C[C@H]86)[C@H](O)C[C@@]7(C)[C@]5(C)CC[C@H]4C3(C)C)OC[C@H](O[C@@H]3O[C@H](CO)[C@@H](O)[C@H](O[C@@H]4O[C@@H](C)[C@H](O)[C@@H](O)[C@H]4O)[C@H]3O[C@@H]3OC[C@@H](O)[C@H](O)[C@H]3O)[C@@H]2O)[C@H](O)[C@@H](O)[C@@H]1O` gave an IC50 (HCT-8) of 9.28 µM, an IC50 (Bel-7402 [2]) of 8.4 µM and an IC50 (A549) of 8.06 µM.

`CC(=O)OC[C@@]1(C)CC[C@]23CO[C@@]4(CC[C@@H]5[C@@]6(C)CC[C@H](O[C@@H]7OC[C@H](O[C@@H]8O[C@H](CO)[C@@H](O)[C@H](O[C@@H]9O[C@@H](C)[C@H](O)[C@@H](O)[C@H]9O)[C@H]8O[C@@H]8OC[C@@H](O)[C@H](O[C@@H]9O[C@H](CO)[C@@H](O)[C@H](O)[C@H]9O)[C@H]8O)[C@H](O)[C@H]7O[C@@H]7O[C@H](CO)[C@@H](O)[C@H](O)[C@H]7O)C(C)(C)[C@@H]6CC[C@@]5(C)[C@]4(C)C[C@H]2O)[C@@H]3C1` gave an IC50 (HCT-8) of 5.73 µM, an IC50 (Bel-7402 [2]) of 2.71 µM and an IC50 (A549) of 6.33 µM.
